Results from ChEMBL document CHEMBL5143732 (J Med Chem, 2022).
In brackets after ≈: the same amount, converted by molar mass.

Experiments:
Candida tropicalis = test: Antifungal activity against Candida tropicalis assessed as inhibition of fungal growth measured after 48 hrs by CLSI based agar dilution method; format: functional
Candida parapsilosis = test: Antifungal activity against Candida parapsilosis assessed as inhibition of fungal growth measured after 48 hrs by CLSI based agar dilution method; format: functional; conditions: Lodderomyces parapsilosis
Candida albicans = test: Antifungal activity against Candida albicans assessed as inhibition of fungal growth measured after 48 hrs by CLSI based agar dilution method; format: functional
[1] = Hemolytic activity in human RBC measured after 1 hr; format: toxicity, cell-based, Erythrocyte; conditions: red blood cells (erythrocytes)
Pichia kudriavzevii [2] = test: Antifungal activity against Candida krusei assessed as inhibition of fungal growth measured after 48 hrs by CLSI based agar dilution method; format: functional
Cryptococcus neoformans = test: Antifungal activity against Cryptococcus neoformans ATCC 32609 assessed as inhibition of fungal growth measured after 48 hrs by CLSI based agar dilution method; format: functional
Pichia kudriavzevii [3] = test: Antifungal activity against Candida krusei ATCC 6258 assessed as inhibition of fungal growth measured after 48 hrs by CLSI based agar dilution method; format: functional

Structure (SMILES): CNCC(=O)N[C@@H]1[C@H](O)[C@H](O[C@H]2/C=C/C=C/C=C/C=C/C=C/C=C/C=C/[C@H](C)[C@@H](O)[C@@H](C)[C@H](C)OC(=O)C[C@H](O)C[C@H](O)CC[C@@H](O)[C@H](O)C[C@H](O)C[C@]3(O)C[C@H](O)[C@@H](C(=O)NCCO)[C@H](C2)O3)O[C@H](C)[C@H]1O
- MIC (Candida tropicalis): 2 µg/mL (≈ 1.93 µM)
- MIC (Candida parapsilosis): 2 µg/mL (≈ 1.93 µM)
- MIC (Candida albicans): 1 µg/mL (≈ 0.963 µM)
- HC50 at 1 h [1]: 1.79 µM
- MIC (Pichia kudriavzevii [2]): 1 µg/mL (≈ 0.963 µM)
- MIC (Cryptococcus neoformans): 0.5 µg/mL (≈ 0.482 µM)
- MIC (Pichia kudriavzevii [3]): 0.125 µg/mL (≈ 0.12 µM)

Structure (SMILES): CNCC(=O)N[C@@H]1[C@H](O)[C@H](O[C@H]2/C=C/C=C/C=C/C=C/C=C/C=C/C=C/[C@H](C)[C@@H](O)[C@@H](C)[C@H](C)OC(=O)C[C@H](O)C[C@H](O)CC[C@@H](O)[C@H](O)C[C@H](O)C[C@]3(O)C[C@H](O)[C@@H](C(=O)N(C)CCO)[C@H](C2)O3)O[C@H](C)[C@H]1O
- MIC (Candida tropicalis): 1 µg/mL (≈ 0.95 µM)
- MIC (Candida parapsilosis): 1 µg/mL (≈ 0.95 µM)
- MIC (Candida albicans): 0.5 µg/mL (≈ 0.475 µM)
- HC50 at 1 h [1]: 14.8 µM
- MIC (Pichia kudriavzevii [2]): 1 µg/mL (≈ 0.95 µM)
- MIC (Cryptococcus neoformans): 0.5 µg/mL (≈ 0.475 µM)
- MIC (Pichia kudriavzevii [3]): 2 µg/mL (≈ 1.9 µM)

Structure (SMILES): CC(=O)NNC(=O)[C@H]1[C@@H]2C[C@@H](O[C@@H]3O[C@H](C)[C@@H](O)[C@H](N)[C@@H]3O)/C=C/C=C/C=C/C=C/C=C/C=C/C=C/[C@H](C)[C@@H](O)[C@@H](C)[C@H](C)OC(=O)C[C@H](O)C[C@H](O)CC[C@@H](O)[C@H](O)C[C@H](O)C[C@](O)(C[C@@H]1O)O2
- MIC (Candida tropicalis): 2 µg/mL (≈ 2.04 µM)
- MIC (Candida parapsilosis): 1 µg/mL (≈ 1.02 µM)
- MIC (Candida albicans): 0.25 µg/mL (≈ 0.255 µM)
- HC50 at 1 h [1]: 5.61 µM
- MIC (Pichia kudriavzevii [2]): 0.125 µg/mL (≈ 0.128 µM)
- MIC (Cryptococcus neoformans): 0.125 µg/mL (≈ 0.128 µM)
- MIC (Pichia kudriavzevii [3]): 1 µg/mL (≈ 1.02 µM)

Structure (SMILES): COC(=O)NNC(=O)[C@H]1[C@@H]2C[C@@H](O[C@@H]3O[C@H](C)[C@@H](O)[C@H](N)[C@@H]3O)/C=C/C=C/C=C/C=C/C=C/C=C/C=C/[C@H](C)[C@@H](O)[C@@H](C)[C@H](C)OC(=O)C[C@H](O)C[C@H](O)CC[C@@H](O)[C@H](O)C[C@H](O)C[C@](O)(C[C@@H]1O)O2
- MIC (Candida tropicalis): 0.5 µg/mL (≈ 0.502 µM)
- MIC (Candida parapsilosis): 0.5 µg/mL (≈ 0.502 µM)
- MIC (Candida albicans): 0.015 µg/mL (≈ 0.0151 µM)
- HC50 at 1 h [1]: 5.69 µM
- MIC (Pichia kudriavzevii [2]): 0.015 µg/mL (≈ 0.0151 µM)
- MIC (Cryptococcus neoformans): 0.125 µg/mL (≈ 0.125 µM)
- MIC (Pichia kudriavzevii [3]): 0.25 µg/mL (≈ 0.251 µM)

Structure (SMILES): CNCC(=O)N[C@@H]1[C@H](O)[C@H](O[C@H]2/C=C/C=C/C=C/C=C/C=C/C=C/C=C/[C@H](C)[C@@H](O)[C@@H](C)[C@H](C)OC(=O)C[C@H](O)C[C@H](O)CC[C@@H](O)[C@H](O)C[C@H](O)C[C@]3(O)C[C@H](O)[C@@H](C(=O)N4CCN(CC(C)(O)CO)CC4)[C@H](C2)O3)O[C@H](C)[C@H]1O (stereo not given in full)
- MIC (Candida tropicalis): 1 µg/mL (≈ 0.869 µM)
- MIC (Candida parapsilosis): 2 µg/mL (≈ 1.74 µM)
- MIC (Candida albicans): 0.06 µg/mL (≈ 0.0521 µM)
- HC50 at 1 h [1]: 20.6 µM
- MIC (Pichia kudriavzevii [2]): 0.5 µg/mL (≈ 0.434 µM)
- MIC (Cryptococcus neoformans): 0.5 µg/mL (≈ 0.434 µM)
- MIC (Pichia kudriavzevii [3]): 8 µg/mL (≈ 6.95 µM)

Structure (SMILES): CNCC(=O)N[C@@H]1[C@H](O)[C@H](O[C@H]2/C=C/C=C/C=C/C=C/C=C/C=C/C=C/[C@H](C)[C@@H](O)[C@@H](C)[C@H](C)OC(=O)C[C@H](O)C[C@H](O)CC[C@@H](O)[C@H](O)C[C@H](O)C[C@]3(O)C[C@H](O)[C@@H](C(=O)N(C)CCCO)[C@H](C2)O3)O[C@H](C)[C@H]1O
- MIC (Candida tropicalis): 4 µg/mL (≈ 3.75 µM)
- MIC (Candida parapsilosis): 4 µg/mL (≈ 3.75 µM)
- MIC (Candida albicans): 0.06 µg/mL (≈ 0.0563 µM)
- HC50 at 1 h [1]: 9.52 µM
- MIC (Pichia kudriavzevii [2]): 0.5 µg/mL (≈ 0.469 µM)
- MIC (Cryptococcus neoformans): 1 µg/mL (≈ 0.938 µM)
- MIC (Pichia kudriavzevii [3]): 4 µg/mL (≈ 3.75 µM)

Structure (SMILES): COC(=O)NNC(=O)[C@H]1[C@@H]2C[C@@H](O[C@@H]3O[C@H](C)[C@@H](O)[C@H](NC(=O)CN)[C@@H]3O)/C=C/C=C/C=C/C=C/C=C/C=C/C=C/[C@H](C)[C@@H](O)[C@@H](C)[C@H](C)OC(=O)C[C@H](O)C[C@H](O)CC[C@@H](O)[C@H](O)C[C@H](O)C[C@](O)(C[C@@H]1O)O2
- MIC (Candida tropicalis): 0.25 µg/mL (≈ 0.237 µM)
- MIC (Candida parapsilosis): 2 µg/mL (≈ 1.9 µM)
- MIC (Candida albicans): 0.06 µg/mL (≈ 0.057 µM)
- HC50 at 1 h [1]: 8.84 µM
- MIC (Pichia kudriavzevii [2]): 0.125 µg/mL (≈ 0.119 µM)
- MIC (Cryptococcus neoformans): 1.12 µg/mL (≈ 1.07 µM)
- MIC (Pichia kudriavzevii [3]): 0.5 µg/mL (≈ 0.475 µM)

Structure (SMILES): C[C@@H]1[C@H](O)[C@@H](C)/C=C/C=C/C=C/C=C/C=C/C=C/C=C/[C@H](O[C@@H]2O[C@H](C)[C@@H](O)[C@H](NC(=O)CN)[C@@H]2O)C[C@@H]2O[C@](O)(C[C@@H](O)C[C@@H](O)[C@H](O)CC[C@@H](O)C[C@@H](O)CC(=O)O[C@H]1C)C[C@H](O)[C@H]2C(=O)NCCCO
- MIC (Candida tropicalis): 2 µg/mL (≈ 1.93 µM)
- MIC (Candida parapsilosis): 0.5 µg/mL (≈ 0.482 µM)
- MIC (Candida albicans): 0.5 µg/mL (≈ 0.482 µM)
- HC50 at 1 h [1]: 7.86 µM
- MIC (Pichia kudriavzevii [2]): 0.25 µg/mL (≈ 0.241 µM)
- MIC (Cryptococcus neoformans): 0.25 µg/mL (≈ 0.241 µM)
- MIC (Pichia kudriavzevii [3]): 0.25 µg/mL (≈ 0.241 µM)

Structure (SMILES): CNCC(=O)N[C@@H]1[C@H](O)[C@H](O[C@H]2/C=C/C=C/C=C/C=C/C=C/C=C/C=C/[C@H](C)[C@@H](O)[C@@H](C)[C@H](C)OC(=O)C[C@H](O)C[C@H](O)CC[C@@H](O)[C@H](O)C[C@H](O)C[C@]3(O)C[C@H](O)[C@@H](C(=O)N4CCN(CC(O)CO)CC4)[C@H](C2)O3)O[C@H](C)[C@H]1O (stereo not given in full)
- MIC (Candida tropicalis): 1 µg/mL (≈ 0.879 µM)
- MIC (Candida parapsilosis): 0.25 µg/mL (≈ 0.22 µM)
- MIC (Candida albicans): 1 µg/mL (≈ 0.879 µM)
- HC50 at 1 h [1]: 9.06 µM
- MIC (Pichia kudriavzevii [2]): 1 µg/mL (≈ 0.879 µM)
- MIC (Cryptococcus neoformans): 0.5 µg/mL (≈ 0.44 µM)
- MIC (Pichia kudriavzevii [3]): 2 µg/mL (≈ 1.76 µM)

Structure (SMILES): CCOC(=O)NNC(=O)[C@H]1[C@@H]2C[C@@H](O[C@@H]3O[C@H](C)[C@@H](O)[C@H](N)[C@@H]3O)/C=C/C=C/C=C/C=C/C=C/C=C/C=C/[C@H](C)[C@@H](O)[C@@H](C)[C@H](C)OC(=O)C[C@H](O)C[C@H](O)CC[C@@H](O)[C@H](O)C[C@H](O)C[C@](O)(C[C@@H]1O)O2
- MIC (Candida tropicalis): 2 µg/mL (≈ 1.98 µM)
- MIC (Candida parapsilosis): 2 µg/mL (≈ 1.98 µM)
- MIC (Candida albicans): 0.25 µg/mL (≈ 0.247 µM)
- HC50 at 1 h [1]: 6.29 µM
- MIC (Pichia kudriavzevii [2]): 0.25 µg/mL (≈ 0.247 µM)
- MIC (Cryptococcus neoformans): 0.06 µg/mL (≈ 0.0594 µM)
- MIC (Pichia kudriavzevii [3]): 0.5 µg/mL (≈ 0.495 µM)

Structure (SMILES): CNCC(=O)N[C@@H]1[C@H](O)[C@H](O[C@H]2/C=C/C=C/C=C/C=C/C=C/C=C/C=C/[C@H](C)[C@@H](O)[C@@H](C)[C@H](C)OC(=O)C[C@H](O)C[C@H](O)CC[C@@H](O)[C@H](O)C[C@H](O)C[C@]3(O)C[C@H](O)[C@@H](C(=O)NCCCO)[C@H](C2)O3)O[C@H](C)[C@H]1O
- MIC (Candida tropicalis): 0.5 µg/mL (≈ 0.475 µM)
- MIC (Candida parapsilosis): 0.5 µg/mL (≈ 0.475 µM)
- MIC (Candida albicans): 0.125 µg/mL (≈ 0.119 µM)
- HC50 at 1 h [1]: 6.24 µM
- MIC (Pichia kudriavzevii [2]): 0.5 µg/mL (≈ 0.475 µM)
- MIC (Cryptococcus neoformans): 0.25 µg/mL (≈ 0.238 µM)
- MIC (Pichia kudriavzevii [3]): 0.25 µg/mL (≈ 0.238 µM)

Structure (SMILES): COC(=O)NNC(=O)[C@H]1[C@@H]2C[C@@H](O[C@@H]3O[C@H](C)[C@@H](O)[C@H](NC(=O)CCN)[C@@H]3O)/C=C/C=C/C=C/C=C/C=C/C=C/C=C/[C@H](C)[C@@H](O)[C@@H](C)[C@H](C)OC(=O)C[C@H](O)C[C@H](O)CC[C@@H](O)[C@H](O)C[C@H](O)C[C@](O)(C[C@@H]1O)O2
- MIC (Candida tropicalis): 8 µg/mL (≈ 7.5 µM)
- MIC (Candida parapsilosis): 8 µg/mL (≈ 7.5 µM)
- MIC (Candida albicans): 0.25 µg/mL (≈ 0.234 µM)
- MIC (Pichia kudriavzevii [2]): 0.5 µg/mL (≈ 0.468 µM)
- MIC (Cryptococcus neoformans): 0.25 µg/mL (≈ 0.234 µM)
- MIC (Pichia kudriavzevii [3]): 8 µg/mL (≈ 7.5 µM)

Structure (SMILES): C[C@@H]1[C@H](O)[C@@H](C)/C=C/C=C/C=C/C=C/C=C/C=C/C=C/[C@H](O[C@@H]2O[C@H](C)[C@@H](O)[C@H](NC(=O)CCN)[C@@H]2O)C[C@@H]2O[C@](O)(C[C@@H](O)C[C@@H](O)[C@H](O)CC[C@@H](O)C[C@@H](O)CC(=O)O[C@H]1C)C[C@H](O)[C@H]2C(=O)NCCN
- MIC (Candida tropicalis): 0.25 µg/mL (≈ 0.241 µM)
- MIC (Candida parapsilosis): 0.125 µg/mL (≈ 0.121 µM)
- MIC (Candida albicans): 0.125 µg/mL (≈ 0.121 µM)
- MIC (Pichia kudriavzevii [2]): 0.5 µg/mL (≈ 0.482 µM)
- MIC (Cryptococcus neoformans): 0.25 µg/mL (≈ 0.241 µM)
- MIC (Pichia kudriavzevii [3]): 1 µg/mL (≈ 0.964 µM)

Structure (SMILES): CNCC(=O)N[C@@H]1[C@H](O)[C@H](O[C@H]2/C=C/C=C/C=C/C=C/C=C/C=C/C=C/[C@H](C)[C@@H](O)[C@@H](C)[C@H](C)OC(=O)C[C@H](O)C[C@H](O)CC[C@@H](O)[C@H](O)C[C@H](O)C[C@]3(O)C[C@H](O)[C@@H](C(=O)N4CCN(C(=O)COCCOC)CC4)[C@H](C2)O3)O[C@H](C)[C@H]1O
- MIC (Candida tropicalis): 16 µg/mL (≈ 13.6 µM)
- MIC (Candida parapsilosis): 4 µg/mL (≈ 3.39 µM)
- MIC (Candida albicans): 4 µg/mL (≈ 3.39 µM)
- MIC (Pichia kudriavzevii [2]): 8 µg/mL (≈ 6.78 µM)
- MIC (Cryptococcus neoformans): 4 µg/mL (≈ 3.39 µM)
- MIC (Pichia kudriavzevii [3]): 16 µg/mL (≈ 13.6 µM)
